Test results published in patent US11174282B2, “Aminosteroid derivatives and process for producing same” (UNIVERSITÉ LAVAL, priority 2016, dated 2021).
Read-outs that look alike come from different tables or passages of the source.

Tests used:
[1] = tested on: HL-60 (acute promyelocytic leukemia) cells; assay: Cell proliferation assay (MTS), HL-60; type: cell-based; settings: for IC50: 3 days treatment, MTS, read-out: IC50 (μM) HL-60 (leukemia); for antiproliferative activity relative to RM-133, HL-60: fold of RM-133 activity (>1 = more active)
Procedure: (§1) The different aminosteroids were dissolved in methanol (50 mM).

[2] = tested on: renal proximal tubule epithelial cells (RPTEC); assay: Toxicity on normal cells (MTS), RPTEC; type: cell-based, human; settings: for IC50: normal (kidney) cells, read-out: IC50 (μM) RPTEC (normal cells)
Procedure: as §1

[3] = tested on: OVCAR-3 cells (ovarian cancer); assay: Cell proliferation assay (MTS), OVCAR-3; type: cell-based; settings: for IC50: 3 days treatment, MTS, read-out: IC50 (μM) Ovarian cancer OVCAR-3; for antiproliferative activity relative to RM-133, OVCAR-3: fold of RM-133 activity (>1 = more active)
Procedure: as §1

[4] = tested on: Human pancreas cancer cells (PANC-1); assay: Cell proliferation assay (MTS), PANC-1; type: cell-based; settings: for IC50: 3 days treatment, MTS, read-out: IC50 (μM) Pancreatic cancer PANC-1; for antiproliferative activity relative to RM-133, PANC-1: fold of RM-133 activity (>1 = more active)
Procedure: as §1

[5] = tested on: LNCaP (prostate cancer) cells; assay: Cell proliferation assay (MTS), LNCaP; type: cell-based; settings: Homo sapiens, 72 h, 3 days treatment, MTS, read-out: IC50 (μM) Prostate cancer LNCaP
Procedure: as §1

[6] = tested on: LAPC-4 (prostate cancer) cells; assay: Cell proliferation assay (MTS), LAPC-4; type: cell-based; settings: Homo sapiens, LAPC4, 72 h, 3 days treatment, MTS; read-out: IC50 (μM) Prostate cancer LAPC-4
Procedure: as §1

[7] = tested on: primary pancreas normal cells; assay: Toxicity on normal cells (MTS), primary pancreas; type: cell-based, human; settings: for Selectivity Index Pancreas: IC50 normal cells/IC50 cancer cells (primary pancreas / PANC-1); for IC50: human normal cells; for times more toxic relative to RM-133, primary pancreas cells: human, 3 days
Procedure: as §1

[8] = tested on: primary ovary normal cells; assay: cells; type: cell-based, human; settings: for Selectivity Index Ovary: IC50 normal cells/IC50 cancer cells (primary ovary / OVCAR-3); for IC50: human normal cells, read-out: IC50 (μM) Primary Ovary (normal cells)
Procedure: as §1

[9] = tested on: PC-3 (prostate cancer) cells; assay: Cell proliferation assay (MTS), PC-3; type: cell-based; settings: 72 h; 3 days treatment, MTS; read-out: IC50 (μM) Prostate cancer PC-3
Procedure: as §1

[10] = Metabolic stability assay, human liver microsomes; settings: 1 h
Procedure: (§2) Assays were performed at 37° C. for 1 h, with or without 10 mM NADPH in the presence of 40 μg of human liver microsome from Corning (Melrose, Mass., USA) and 10 μM of aminosteroid substrate in a final 100 μL volume of 50 mM Tris buffer (pH 7.4) supplemented with 10 mM MgCl2. Assays were ended by adding 100 μL of MeOH followed by centrifugation at 13,000 g for 10 min to obtain a pellet of proteins. The supernatant of 2 assays was pooled and submitted to HPLC-MS analysis (Shimadzu LCMS-2020 APCI, Alltima HP C18 (250 mm×4.6 mm, 5 μm) column, MeOH:H2O gradient). Remaining substrate (expressed in %) was calculated by dividing the area under the curve of the substrate for the assays without NADPH by the area under the curve of the substrate for the assays with NADPH and multiplied by 100. Values represent the average of 2 independent experiments.

[11] = human, 1 h
Procedure: as §2

[12] = tested on: MCF-7 breast cancer cells; assay: Cell proliferation assay (MTS), MCF-7; type: cell-based, human; settings: Homo sapiens, MCF7, 72 h, 3 days treatment
Procedure: as §1

[13] = tested on: T-47D breast cancer cell line; assay: Cell proliferation assay (MTS), T-47D; type: cell-based; settings: Homo sapiens, T47D, 72 h; 3 days treatment, MTS
Procedure: as §1

Compound	IC50 ([1]; Homo sapiens, HL-60, 72 h) [µM]	antiproliferative activity relative to RM-133, HL-60 [1]	IC50 ([3]; Homo sapiens, OVCAR-3, 72 h) [µM]	antiproliferative activity relative to RM-133, OVCAR-3 [3]	IC50 ([4]; Homo sapiens, PANC-1, 72 h) [µM]	antiproliferative activity relative to RM-133, PANC-1 [4]	IC50 [5] [µM]	IC50 [6] [µM]	IC50 [9] [µM]	further results
C#C[C@@]1(O)CC[C@H]2[C@@H]3CC[C@H]4CC(=O)C(N5CCN(C(=O)[C@@H]6CCCN6C(=O)c6ccc7ccccc7n6)CC5)=C[C@]4(C)[C@H]3CC[C@@]21C [1 (enone), (5α,17α)-17-hydroxy-2-(4-{[(2S)-1-(quinolin-2-ylcarbonyl)pyrrolidin-2-yl]carbonyl}piperazin-1-yl)pregn-1-en-20-yn-3-one]	3.16	2.3 fold	0.24	22.9 fold	0.59	11.3 fold	0.002	0.03	0.002	IC50 ([2]; Homo sapiens, RPTEC): 4.5 to 15.3 µM; IC50 [2]: 4.55 µM; IC50 ([4]; listed as Enone 1): 0.6 µM; Selectivity Index Pancreas [7]: 3.7; IC50 [7]: 2.2 µM; times more toxic relative to RM-133, primary pancreas cells [7]: 4.3 times; Selectivity Index Ovary [8]: 38; IC50 [8]: 9.12 µM; times more toxic relative to RM-133, primary ovary cells ([8]; human, 3 days): 1.6 times
C#C[C@@]1(O)CC[C@H]2[C@@H]3CC[C@H]4CC(=O)[C@@H](N5CCN(C(=O)[C@@H]6CCCN6C(=O)c6ccc7ccccc7n6)CC5)C[C@]4(C)[C@H]3CC[C@@]21C [2 (ketone), (2β,5α,17α)-17-hydroxy-2-(4-{[(2S)-1-(quinolin-2-ylcarbonyl)pyrrolidin-2-yl]carbonyl}piperazin-1-yl)pregn-20-yn-3-one]	6.52		2.75	2 fold	7.01					IC50 ([2]; Homo sapiens, RPTEC): 20.7 µM; Selectivity Index Pancreas [7]: 0.8; IC50 [7]: 5.41 µM; times more toxic relative to RM-133, primary pancreas cells [7]: 1.7 times; Selectivity Index Ovary [8]: 5.5; IC50 [8]: 15 µM
C#CC1(O)CCC2C3CCC4CC(O)C([N+]5([O-])CCN(C(=O)C6CCCN6C(=O)c6ccc7ccccc7n6)CC5)CC4(C)C3CCC21C [7 (N-oxime), {4-[(2β,3α,5α,17α)-3,17-dihydroxypregn-20-yn-2-yl]-4-oxidopiperazin-1-yl}[(2S)-1-(quinolin-2-ylcarbonyl)pyrrolidin-2-yl]methanone]		significant loss of activity		significant loss of activity		significant loss of activity				IC50 [1]: 43.7 µM; IC50 [3]: 29.9 µM; increased metabolic stability relative to RM-133 ([10]; human hepatic microsomes): 2.6 fold; IC50 [4]: > 50 µM
CN1CCN(C(=O)[C@@H]2CCCN2C(=O)c2ccc3ccccc3n2)CC1 [10 (side-chain only), (4-methylpiperazin-1-yl)[(2S)-1-(quinolin-2-ylcarbonyl)pyrrolidin-2-yl]methanone]	> 50	completely inactive	> 50	completely inactive	> 50	completely inactive				metabolic stability (% of remaining compound) ([10]; 10 μM, 40 μg human liver microsomes, result in words): more stable than steroid 12 lacking the 2β-side chain or RM-133 itself
C#C[C@@]1(O)CC[C@H]2[C@@H]3CC[C@H]4C[C@H](OC(=O)N(C)C)CC[C@]4(C)[C@H]3CC[C@@]21C [12 (no side-chain; and 3-carbamate), (3α,5α,17α)-17-hydroxypregn-20-yn-3-yl dimethylcarbamate]	15.2	inactive	48.1	inactive	> 50	inactive				
C#C[C@@]1(O)CC[C@H]2[C@@H]3CC[C@H]4C[C@@H](N5CCN(C(=O)[C@@H]6CCCN6C(=O)c6ccc7ccccc7n6)CC5)CC[C@]4(C)[C@H]3CC[C@@]21C [15 (side-chain at 3β), {4-[(3β,5α,17α)-17-hydroxypregn-20-yn-3-yl]piperazin-1-yl}[(2S)-1-(quinolin-2-ylcarbonyl)pyrrolidin-2-yl]methanone]	> 50	completely inactive	> 50	completely inactive	> 50	completely inactive				metabolic stability (% of remaining compound) ([11]; microsomes, 10 μM, pH 7.4): little to no variation on the metabolic stability relative to RM-133
C#C[C@@]1(O)CC[C@H]2[C@@H]3CCc4cc(OS(N)(=O)=O)c(N5CCN(C(=O)[C@@H]6CCCN6C(=O)c6ccc7ccccc7n6)CC5)cc4[C@H]3CC[C@@]21C [Compound 4, (17β)-17-ethynyl-17-hydroxy-2-{4-[1-(quinolin-2-ylcarbonyl)-L-prolyl]piperazin-1-yl}estra-1,3,5(10)-trien-3-yl sulfamate]			3.1 ± 0.5		3 ± 0.2		0.9 ± 0.3	0.3 ± 0.2	1.6 ± 0.1	IC50 [12]: 1.2 ± 0.4 µM; IC50 [13]: 0.2 ± 0.01 µM; times less toxic relative to RM-133, primary pancreas cells [7]: 3.2 times; times less toxic relative to RM-133, primary ovary cells [8]: 2.9 times; phenolic metabolite RM-581-OH (stability of potential prodrugs to hydrolysis) ([11]; 10 μM, pH 7.4): no trace of the phenolic metabolite RM-581-OH could be observed
C#C[C@@]1(O)CC[C@H]2[C@@H]3CCc4cc(OC)c(C(=O)N5CCN(C(=O)[C@@H]6CCCN6C(=O)c6ccc7ccccc7n6)CC5)cc4[C@H]3CC[C@@]21C [Compound 25, [(17β)-17-ethynyl-17-hydroxy-3-methoxyestra-1,3,5(10)-trien-2-yl](4-{[(2S)-1-(quinolin-2-ylcarbonyl)pyrrolidin-2-yl]carbonyl}piperazin-1-yl)methanone]			5.2 ± 1.6		3.5 ± 0.4		0.8 ± 0.2	0.5 ± 0.2	1.7 ± 0.4	IC50 [12]: 2.2 ± 0.1 µM; IC50 [13]: 0.3 ± 0.2 µM
C#C[C@]1(O)CC[C@H]2[C@@H]3CCc4cc(OC)c(CN5CCN(C(=O)[C@@H]6CCCN6C(=O)c6ccc7ccccc7n6)CC5)cc4[C@H]3CC[C@@]21C [Compound 29]			5 ± 0.2		2.6 ± 0.7		1.3 ± 0.5	0.7 ± 0.2	1.7 ± 0.3	IC50 [12]: 2.3 ± 0.6 µM; IC50 [13]: 0.4 ± 0.2 µM
(2β,3α,5α,17α)-3,17-dihydroxy-2-(1-methyl-4-t[(2S)-1-(quinolin-2-ylcarbonyl) pyrrolidin-2-yl]carbonylpiperazin-1-ium-1-yl)pregn-20-yne iodide [6 (CH3-salt)]		significant loss of activity		significant loss of activity		significant loss of activity				IC50 [1]: > 50 µM; IC50 [3]: > 50 µM; IC50 [4]: > 50 µM; increased metabolic stability relative to RM-133 ([11]; microsomes): 2.4 fold
(3α,5α,17α)-pregn-20-yne-3,17-diol [11 (no side-chain; and 3α-OH)]		inactive		inactive		inactive				IC50 [1]: > 50 µM; IC50 [3]: > 50 µM; IC50 [4]: > 50 µM
(17β)-17-ethynyl-17-hydroxy-2-{4-[1-(quinolin-2-ylcarbonyl)-L-prolyl]piperazin-1-yl}estra-1,3,5(10)-trien-3-yl dihydrogen phosphate [Compound 5]										times less toxic relative to RM-133, primary pancreas cells ([7]; normal cells): 1.8 times; times less toxic relative to RM-133, primary ovary cells ([8]; normal cells): 1.7 times
(17β)-17-ethynyl-17-hydroxy-2-{4-[1-(quinolin-2-ylcarbonyl)-L-prolyl]piperazin-1-yl}estra-1,3,5(10)-trien-3-yl dimethylcarbamate [Compound 1]										more cytotoxic relative to RM-133, RPTEC ([2]; normal cells): 5.0 fold
